# In patent US20220096450A1, “Compounds and Methods for Treating or Preventing Heart Failure” (DREXEL UNIVERSITY, priority 2019, published 2022):
# Key:
# [1] = target: T1, mitochondrial CoQ-dependent respiratory complex II (Mus musculus, UniProt Q8K2B3+Q9CQA3+Q9CXV1+Q9CZB0); test: Biochemical selectivity assay, respiratory complex II; conditions: highest concentration tested 11 μM
# T1 construct: mouse muscle homogenate preparations that contain disrupted mitochondrial membranes; from tissue; host or cells: mouse muscle homogenate
# T1 sequence (Q8K2B3 43-664): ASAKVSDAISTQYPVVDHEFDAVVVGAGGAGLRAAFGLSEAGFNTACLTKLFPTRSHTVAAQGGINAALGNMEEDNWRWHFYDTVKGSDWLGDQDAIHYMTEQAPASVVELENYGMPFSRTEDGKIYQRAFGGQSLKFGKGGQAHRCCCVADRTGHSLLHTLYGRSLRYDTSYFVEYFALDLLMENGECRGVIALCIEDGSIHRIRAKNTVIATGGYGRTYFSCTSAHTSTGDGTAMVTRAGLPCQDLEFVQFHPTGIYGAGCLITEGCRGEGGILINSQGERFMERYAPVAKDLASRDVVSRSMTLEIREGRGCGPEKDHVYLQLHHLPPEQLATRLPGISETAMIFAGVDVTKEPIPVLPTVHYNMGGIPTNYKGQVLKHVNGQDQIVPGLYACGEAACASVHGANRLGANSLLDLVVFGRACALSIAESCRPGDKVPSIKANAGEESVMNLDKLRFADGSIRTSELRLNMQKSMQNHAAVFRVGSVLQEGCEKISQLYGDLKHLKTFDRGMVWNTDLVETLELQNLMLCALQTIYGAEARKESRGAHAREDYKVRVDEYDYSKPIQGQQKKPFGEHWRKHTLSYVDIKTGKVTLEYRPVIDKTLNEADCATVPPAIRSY
# T1 sequence (Q9CQA3 31-282): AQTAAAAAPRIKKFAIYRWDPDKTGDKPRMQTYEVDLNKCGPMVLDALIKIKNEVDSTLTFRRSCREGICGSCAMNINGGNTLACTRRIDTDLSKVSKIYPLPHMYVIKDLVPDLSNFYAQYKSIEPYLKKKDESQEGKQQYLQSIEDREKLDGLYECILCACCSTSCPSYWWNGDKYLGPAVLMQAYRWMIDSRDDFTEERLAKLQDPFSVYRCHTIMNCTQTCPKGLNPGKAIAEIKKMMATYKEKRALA
# T1 sequence (Q9CZB0 30-169): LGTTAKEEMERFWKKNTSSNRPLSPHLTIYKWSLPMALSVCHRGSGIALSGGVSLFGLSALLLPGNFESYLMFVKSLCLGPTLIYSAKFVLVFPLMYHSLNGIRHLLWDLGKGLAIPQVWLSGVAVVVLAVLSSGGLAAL
# T1 sequence (Q9CXV1 57-159): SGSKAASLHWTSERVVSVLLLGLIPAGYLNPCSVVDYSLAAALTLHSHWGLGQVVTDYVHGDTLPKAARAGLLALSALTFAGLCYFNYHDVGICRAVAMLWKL
# Description: Inhibitor selectivity was assessed using mouse muscle homogenate preparations that contain disrupted mitochondrial membranes, a feature that makes substrates accessible to each of the membrane-bound respiratory complexes. Spectrophotometric assays for each complex are conducted in the presence or absence of a target-specific inhibitor (FIG. 9) to correct for nonspecific substrate oxidation, as previously described (Spinazzi et al., 2012, Nature Protocols 7: 1235-1246). Thus, the activity of complex I is determined by monitoring the oxidation of NADH in the absence or presence of rotenone. Complex III activity is measured based on the rate of cytochrome C reduction observed in the presence or absence of antimycin A. The reaction catalyzed by complex II produces decylubiquinol (decylCoQH2), which rapidly reduces DCIP. The activity of […] is determined by monitoring DCIP reduction in the presence and absence of 2-thenoyltrifluoroacetone (TTFA).
# [2] = system: TAC mouse model of heart failure; type: in vivo; conditions: 10 mg/kg i.p. daily
# Description: Male C57BL/6J mice 10-14 weeks of age were purchased from The Jackson Laboratory (Bar Harbor, Me.).
# Mice were anesthetized with isofluran or ketamine/xylazine. The mice were orally intubated and placed on a Harvard volume-cycled rodent ventilator to maintain respiration during surgery. The TAC procedure was performed by tying the aortic arch between the brachiocephalic trunk (innominate artery) and the left carotid artery against a 27-gauge needle spacer with a 7-0 silk suture, followed by immediate removal of the needle. For sham surgeries, thoracotomy was performed and the aorta was surgically exposed without any further intervention. Following surgical closure of the chest, the animals were allowed to recover from anesthesia, followed by post-operative care. The animals were euthanized 12 weeks post-surgery; hearts were harvested, weighed and tibia lengths were measured.
# Sterile stock solutions of vehicle only [NMP:PG:kleptose in water (10:40:50)] were similarly prepared each week and stored in aliquots at 4° C. until use. […] (to minimize precipitation), and then cooled to room temperature.
# Transthoracic echocardiography was used to noninvasively quantify cardiac structural and functional changes during the progression to heart failure in the TAC mouse model. Measurements were conducted with animals under 1-3% isoflurane anesthesia using a Vevo® 2100 Imaging System with a high-frequency (18-38 MHz) probe (VisualSonics MS400) (Kohut et al., 2016, J. Cardiovasc. Ultrasound 24: 229-238). Echocardiography using color Doppler ultrasound was performed at 1 week after surgery to confirm the aortic constriction. The aortic constriction was further confirmed by conducting color Doppler and pulsed wave Dopier measurements at 12 weeks after surgery. Baseline echocardiography evaluations were performed 1-2 days prior to surgery. For these studies, parasternal long and short axis images were obtained in two-dimensional B-mode and M-mode. Additional images were obtained at regular intervals (2, 4, 6, 8, 10, 12 weeks) after surgery. To evaluate cardiac structure and function, the echocardiographic data were used to determine left ventricle (LV) end-diastolic diameter, LV end-systolic diameter, LV end-diasolic volume, LV ejection fraction, LV fractional shortening, and LV mass.
# Mouse hearts were collected at 12 weeks post surgery, fixed in 10% buffered formalin, and then embedded in paraffin blocks, which were used to prepare serial 4 μm thick heart sections. To detect interstitial fibrosis, heart sections were stained with Masson's trichrome which colors collagen blue and cytoplasm red. Digital images of the slides were captured at 160× magnification using a Leica DFC290 digital camera in conjunction with a Leica MZ16F microscope. […] For each heart, 2 sections taken from the mid-ventricle were analyzed. […] Images were acquired using a FV3000 Olympus Confocal Microscope and analyzed in a blinded manner by two observers. Five field views per mid-ventricle heart section were analyzed by measuring the cross-sectional area of 100 cells per field view using ImageJ. A total of 500 cells per heart section were measured.
# All data are expressed as means±SEM. Statistical significance was evaluated for comparison between 3 or more means using one-way ANOVA with Tukey-Kramer post hoc test. For the echcocardiography data, obtained prior to and at two-week intervals after surgery, statistical significance was evaluated using two-way repeated ANOVA with Bonferroni post hoc test.
# [3] = echocardiography, TAC mice, 12 weeks
smiles,measurement,setting,value
"COc1nc(-c2ncccc2C)cc(-c2ccc(N)cc2)c1C#N [FC9402, 4-(4-aminophenyl)-2-methoxy-6-(3-methylpyridin-2-yl)pyridine-3-carbonitrile]",inhibition of respiratory complex II,[1],did not inhibit
same,survival after 12 weeks,[2]; TAC mice,100%
same,"cardiac enlargement (gross morphology, heart weight to tibia length)","[2]; TAC mice, 12 weeks",prevented the TAC-induced cardiac enlargement
same,"left ventricle function (ejection fraction, fractional shortening)",[2]; [3],preserved left ventricle function
same,"left ventricle size (diameter, volume, mass)",[2]; [3],maintained left ventricle size
same,mice that developed heart failure,[2]; lung weight/tibia length above 95% confidence interval of sham,20%
